For test [1], the system named is Cricetinae gen. sp. Kind of test: Inhibitory activity against cholesterol absorption in the hamster. The class given is functional.
Test [2] concerns Cricetinae gen. sp. Kind of test: Inhibition of cholesterol absorption in the hamster. Format: functional.

Consider `C[C@@H]1CC[C@@]2(OC1)OC1C[C@H]3[C@@H]4CC[C@H]5C[C@@H](O[C@@H]6O[C@@H](C)[C@@H](O[C@@H]7O[C@@H](CO)[C@@H](O)[C@H](O)[C@@H]7O)[C@H](O)[C@@H]6O)CC[C@]5(C)[C@H]4CC(=O)[C@]3(C)C1[C@@H]2C` (stereo partly specified), for which, in test [1], the Relative potency was 167. Further, the ED50 in test [2] was 5 mg/kg.
In the same order, the values of `C[C@@H]1CC[C@@]2(OC1)O[C@H]1C[C@H]3[C@@H]4CC[C@H]5C[C@@H](O[C@@H]6O[C@@H](CO)[C@@H](O[C@@H]7O[C@@H](C)[C@@H](O)[C@H](O)[C@@H]7O)[C@H](O)[C@@H]6O)CC[C@]5(C)[C@H]4CC(=O)[C@]3(C)[C@H]1[C@@H]2C` are 107 and 3.2 mg/kg.
In the same order, the values of `C[C@@H]1CC[C@@]2(OC1)O[C@H]1C[C@H]3[C@@H]4CC[C@H]5C[C@@H](O[C@@H]6O[C@@H](COC(=O)Nc7ccccc7F)[C@@H](O[C@@H]7O[C@@H](COC(=O)Nc8ccccc8F)[C@@H](OC(=O)Nc8ccccc8F)[C@H](O)[C@@H]7O)[C@H](O)[C@@H]6O)CC[C@]5(C)[C@H]4C(=O)C[C@]3(C)[C@H]1[C@@H]2C` are 8 and 0.2 mg/kg.
As to `C[C@@H]1CC[C@@]2(OC1)O[C@H]1C[C@H]3[C@@H]4CC[C@H]5C[C@@H](O[C@@H]6O[C@@H](CO)[C@@H](O[C@@H]7O[C@@H](CO)[C@@H](OC(=O)Nc8ccccc8F)[C@H](O)[C@@H]7O)[C@H](O)[C@@H]6O)CC[C@]5(C)[C@H]4C(=O)C[C@]3(C)[C@H]1[C@@H]2C`, the Relative potency in test [1] is 4. In test [2], this compound returned an ED50 of 0.1 mg/kg.
For `C[C@@H]1CC[C@@]2(OC1)O[C@H]1C[C@H]3[C@@H]4CC[C@H]5C[C@@H](O[C@@H]6O[C@@H](CO)[C@@H](O[C@@H]7O[C@@H](COC(=O)Nc8ccccc8F)[C@@H](O)[C@H](O)[C@@H]7O)[C@H](O)[C@@H]6O)CC[C@]5(C)[C@H]4C(=O)C[C@]3(C)[C@H]1[C@@H]2C`, in that order: 8 and 0.2 mg/kg.
In the same order, the values of `C[C@@H]1CC[C@@]2(OC1)O[C@H]1C[C@H]3[C@@H]4CC[C@H]5C[C@@H](O[C@@H]6O[C@@H](CO)[C@@H](O[C@@H]7O[C@@H](C)C[C@H](O)[C@@H]7O)[C@H](O)[C@@H]6O)CC[C@]5(C)[C@H]4CC(=O)[C@]3(C)[C@H]1[C@@H]2C` are 100 and 3 mg/kg.
For `C[C@@H]1CC[C@@]2(OC1)O[C@H]1C[C@H]3[C@@H]4CC[C@H]5C[C@@H](O[C@@H]6O[C@@H](C)[C@@H](O[C@@H]7O[C@@H](C)[C@@H](O)[C@H](O)[C@@H]7O)[C@H](O)[C@@H]6O)CC[C@]5(C)[C@H]4CC(=O)[C@]3(C)[C@H]1[C@@H]2C`, in that order: 167 and 5 mg/kg.
In test [1], `C[C@@H]1CC[C@@]2(OC1)O[C@H]1C[C@H]3[C@@H]4CC[C@H]5C[C@@H](O[C@@H]6O[C@@H](CO)[C@@H](O[C@@H]7O[C@@H](CO)C[C@H](O)[C@@H]7O)[C@H](O)[C@@H]6O)CC[C@]5(C)[C@H]4CC(=O)[C@]3(C)[C@H]1[C@@H]2C` had a Relative potency of 433. Further, in test [2], the ED50 worked out at 13 mg/kg.
For `C[C@@H]1CC[C@@]2(OC1)O[C@H]1C[C@H]3[C@@H]4CC[C@H]5C[C@@H](O[C@@H]6O[C@@H](CO)[C@@H](O[C@@H]7O[C@@H](COC(=O)Nc8ccccc8F)[C@@H](OC(=O)Nc8ccccc8F)[C@H](O)C7O)[C@H](O)[C@@H]6O)CC[C@]5(C)[C@H]4CC(=O)[C@]3(C)[C@H]1[C@@H]2C` (stereo partly specified), in that order: 2.3 and 0.07 mg/kg.
In the same order, the values of `C[C@@H]1CC[C@@]2(OC1)O[C@H]1C[C@H]3[C@@H]4CC[C@H]5C[C@@H](O[C@@H]6O[C@@H](CO)[C@@H](O[C@@H]7O[C@@H](COC(=O)Nc8ccccc8F)[C@@H](OC(=O)Nc8ccccc8F)[C@H](O)C7O)[C@H](O)[C@@H]6O)CC[C@]5(C)[C@H]4C(=O)C[C@]3(C)[C@H]1[C@@H]2C` (stereo partly specified) are 1 and 0.025 mg/kg.
In the same order, the values of `C[C@@H]1CC[C@@]2(OC1)O[C@H]1C[C@H]3[C@@H]4CC[C@H]5C[C@@H](O[C@@H]6O[C@@H](COC(=O)Nc7ccccc7F)C(O[C@@H]7O[C@@H](CO)C(O)[C@H](O)C7O)[C@H](O)C6O)CC[C@]5(C)[C@H]4C(=O)C[C@]3(C)[C@H]1[C@@H]2C` (stereo partly specified) are 280 and 7 mg/kg.
For the compound `C[C@@H]1CC[C@@]2(OC1)O[C@H]1C[C@H]3[C@@H]4CC[C@H]5C[C@@H](O[C@@H]6O[C@@H](CO)[C@@H](O[C@@H]7O[C@@H](COC(=O)Nc8ccccc8F)C[C@H](O)[C@@H]7O)[C@H](O)[C@@H]6O)CC[C@]5(C)[C@H]4CC(=O)[C@]3(C)[C@H]1[C@@H]2C`, the Relative potency in test [1] is recorded as 5. Also, the ED50 in test [2] was 0.15 mg/kg.
Take `C[C@@H]1CC[C@@]2(OC1)O[C@H]1C[C@H]3[C@@H]4CC[C@H]5C[C@@H](O[C@@H]6O[C@@H](COC(=O)Nc7ccccc7F)[C@@H](O[C@@H]7O[C@@H](COC(=O)Nc8ccccc8F)[C@@H](O)[C@H](O)[C@@H]7O)[C@H](O)[C@@H]6O)CC[C@]5(C)[C@H]4C(=O)C[C@]3(C)[C@H]1[C@@H]2C`: in test [1], the Relative potency stood at 32. The compound also came in with an ED50 in test [2] of 0.8 mg/kg.
In the same order, the values of `C[C@@H]1CC[C@@]2(OC1)O[C@H]1C[C@H]3[C@@H]4CC[C@H]5C[C@@H](O[C@@H]6O[C@@H](CO)[C@@H](O[C@@H]7O[C@@H](CO)[C@@H](OC(=O)Nc8ccccc8F)[C@H](OC(=O)Nc8ccccc8F)[C@@H]7O)[C@H](O)[C@@H]6O)CC[C@]5(C)[C@H]4C(=O)C[C@]3(C)[C@H]1[C@@H]2C` are 4 and 0.1 mg/kg.
In the same order, the values of `C[C@@H]1CC[C@@]2(OC1)O[C@H]1C[C@H]3[C@@H]4CC[C@H]5C[C@@H](O[C@@H]6O[C@@H](CO)[C@@H](O[C@@H]7O[C@@H](CO)[C@@H](OC(=O)Nc8ccccc8F)[C@H](O)[C@@H]7O)[C@H](O)[C@@H]6O)CC[C@]5(C)[C@H]4CC(=O)[C@]3(C)[C@H]1[C@@H]2C` are 5 and 0.15 mg/kg.
In the same order, the values of `C[C@@H]1CC[C@@]2(OC1)O[C@H]1C[C@H]3[C@@H]4CC[C@H]5C[C@@H](O[C@@H]6O[C@@H](CO)[C@@H](O[C@@H]7O[C@@H](COC(=O)Nc8ccccc8F)[C@@H](O)[C@H](O)[C@@H]7O)[C@H](O)[C@@H]6O)CC[C@]5(C)[C@H]4CC(=O)[C@]3(C)[C@H]1[C@@H]2C` are 10 and 0.3 mg/kg.
For `C[C@@H]1CC[C@@]2(OC1)O[C@H]1C[C@H]3[C@@H]4CC[C@H]5C[C@@H](O[C@@H]6O[C@@H](CO)[C@@H](O[C@@H]7O[C@@H](C)[C@@H](OC(=O)Nc8ccccc8F)[C@H](O)[C@@H]7O)[C@H](O)[C@@H]6O)CC[C@]5(C)[C@H]4CC(=O)[C@]3(C)[C@H]1[C@@H]2C`, the Relative potency in test [1] turned out to be 1. Further, the ED50 in test [2] came out at 0.03 mg/kg.
For `C[C@@H]1CC[C@@]2(OC1)O[C@H]1C[C@H]3[C@@H]4CC[C@H]5C[C@@H](O[C@@H]6O[C@@H](CO)[C@@H](O[C@@H]7O[C@@H](CO)[C@@H](O)[C@H](O)[C@@H]7O)[C@H](O)[C@@H]6O)CC[C@]5(C)[C@H]4CC(=O)[C@]3(C)[C@H]1[C@@H]2C` [CELLOBIOSYL HECOGENIN], in that order: 333 and 10 mg/kg.

For orientation: ED50 means the dose at which the effect has come halfway, by size or by number of responders. Low readings indicate an effect at a small dose, high ones a need for a large dose.
